Source: patent US9120749B2, “Quinoline derivatives and MELK inhibitors containing the same” (ONCOTHERAPY SCIENCE, INC., priority 2010, dated 2015)
Counter-ions that a name gives are not always drawn.

Experiments:
MELK = MELK (Homo sapiens, UniProt Q14680); assay: Kinase assay: MELK activity, phosphorylation of FITC-labeled histone H3 peptide measured by IMAP fluorescence polarization; assay type: biochemical; details: 50 micro-M ATP, FITC-labeled histone H3 peptide substrate, IMAP fluorescence polarization; read-out: IC50 (μM) (kinase assay)
MELK, sequence (Q14680 whole entry, looked up): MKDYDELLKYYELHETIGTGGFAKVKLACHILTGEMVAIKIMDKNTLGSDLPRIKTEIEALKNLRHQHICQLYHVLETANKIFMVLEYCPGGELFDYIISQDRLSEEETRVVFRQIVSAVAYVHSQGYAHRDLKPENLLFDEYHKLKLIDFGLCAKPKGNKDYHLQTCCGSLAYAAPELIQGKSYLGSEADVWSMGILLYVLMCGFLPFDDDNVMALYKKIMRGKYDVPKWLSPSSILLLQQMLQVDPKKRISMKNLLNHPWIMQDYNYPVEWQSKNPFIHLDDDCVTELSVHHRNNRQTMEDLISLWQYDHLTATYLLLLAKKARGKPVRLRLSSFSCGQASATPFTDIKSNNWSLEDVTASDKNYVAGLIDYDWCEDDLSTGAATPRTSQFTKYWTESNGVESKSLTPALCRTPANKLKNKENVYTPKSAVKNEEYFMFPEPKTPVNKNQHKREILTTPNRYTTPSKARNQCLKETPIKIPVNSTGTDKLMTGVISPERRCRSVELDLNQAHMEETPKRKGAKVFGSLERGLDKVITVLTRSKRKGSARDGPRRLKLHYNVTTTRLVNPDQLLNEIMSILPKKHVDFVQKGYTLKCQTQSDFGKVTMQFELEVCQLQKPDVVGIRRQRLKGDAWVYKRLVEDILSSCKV
In short: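 Substrate is FITC-labeled histone H3 peptide. Compounds come from a 12.5 mM DMSO stock, diluted so assay DMSO is 1%. The stop step adds threefold-volume progressive binding solution, followed by 0.5 h at room temperature and an FP read.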

BT-549 cells = assay: Cell-based assay: anti-proliferative activity, Cell Counting Kit-8, 72 hours (BT-549); details: Homo sapiens, BT-549, 72 h, BT549 cells, MELK-expressing; Cell Counting Kit-8 at 72 hours
Description: To evaluate the expression status of MELK in several cell lines, western blot analysis was performed using crude cell lysate collected from those cells. Anti-MELK antibody (clone 31, BD Biosciences) was used to visualize the expression.
Active candidate inhibitors against MELK were evaluated for their target-specific cytotoxicity using T47D, A549, BT-549, and HT-1197 cells was used for negative control. 100 micro-L of cell suspension was seeded onto 96-well microtiter plate (ViewPlate-96FTC, PerkinElmer). The initial cell concentration of T47D, A549, BT-549, and HT-1197 were 3,000 cells/well, 2,000 cells/well and 2,500 cells/well, respectively. Cellular growth was determined using Cell Counting Kit-8 (DOJINDO) at 72 hours after the exposure of the candidate inhibitors. […] Accurate IC50 values were calculated as described previously.

T47D cells = assay: Cell-based assay: anti-proliferative activity, Cell Counting Kit-8, 72 hours (T47D); details: Homo sapiens, T47D, 72 h, MELK-expressing, Cell Counting Kit-8 at 72 hours
In short: (§1)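 IC50 values come from CCK-8 growth measurements taken 72 hours post-treatment of plated cells with test compounds. Expression of MELK across the panel was assessed through immunoblot of unfractionated lysates.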

A549 cells = assay: Cell-based assay: anti-proliferative activity, Cell Counting Kit-8, 72 hours (A549); details: Homo sapiens, A549, 72 h, MELK-expressing, Cell Counting Kit-8 at 72 hours
In short: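 A549 cells seeded in 96-well plates and exposed to candidate inhibitors for 72 hours. Growth measured with Cell Counting Kit-8; IC50 values calculated from the dose response.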

HT-1197 cells = assay: Cell-based assay: anti-proliferative activity, Cell Counting Kit-8, 72 hours (HT-1197, negative control without MELK expression); details: Homo sapiens, HT1197, 72 h, HT1197 cells, no MELK expression (negative control); Cell Counting Kit-8 at 72 hours
In short: as §1

For `COc1cc(-c2ccc3ncc(C(=O)C4CC4)c(Nc4ccc(CN(C)C)cc4)c3c2)cc(Cl)c1O` [Example 339], which IC50 (MELK) is on record?
Its IC50 is 0.004 µM.

And the IC50 (BT-549 cells)?
Its IC50 is 0.49 µM.

And the IC50 (T47D cells)?
The IC50 was 0.15 µM.

What about the IC50 (A549 cells) of the same molecule?
The IC50 was 0.19 µM.

And the IC50 (HT-1197 cells)?
The IC50 was 1.9 µM.

For `CC(=O)c1cnc2ccc(-c3cc(Cl)c(O)c(Cl)c3)cc2c1N[C@H]1CC[C@H](N)CC1` [Example 256, 1-{4-[trans-4-Aminocyclohexylamino]-6-(3,5-dichloro-4-hydroxyphenyl)quinolin-3-yl}ethanone], which IC50 (MELK) is on record?
The IC50 was 0.0041 µM.

What about the IC50 (BT-549 cells) of the same molecule?
The IC50 was 0.31 µM.

And the IC50 (T47D cells)?
Its IC50 is 0.064 µM.

What about the IC50 (A549 cells) of the same molecule?
Its IC50 is 0.44 µM.

What about the IC50 (HT-1197 cells) of the same molecule?
Its IC50 is 100 µM.

How did the IC50 (MELK) turn out when `CN(C)[C@H]1CC[C@H](Nc2c(C(=O)C3CC3)cnc3ccc(-c4cc(Cl)c(O)c(Cl)c4)cc23)CC1` [Example 263, Cyclopropyl{6-(3,5-dichloro-4-hydroxyphenyl)-4-[trans-4-(dimethylamino)cyclohexylamino]quinolin-3-yl}methanone] was run?
Its IC50 is 0.0017 µM.

And the IC50 (BT-549 cells)?
The IC50 was 0.41 µM.

What about the IC50 (T47D cells) of the same molecule?
The IC50 was 0.13 µM.

What about the IC50 (A549 cells) of the same molecule?
The IC50 was 0.2 µM.

What about the IC50 (HT-1197 cells) of the same molecule?
The IC50 was 1.2 µM.

What does the source list for `COc1cc(-c2ccc3ncc(C(=O)C4CC4)c(N4CCC(CN(C)C)CC4)c3c2)ccc1O` [Example 133, Cyclopropyl[4-{4-[(dimethylamino)methyl]piperidin-1-yl}-6-(4-hydroxy-3-methoxyphenyl)quinolin-3-yl]methanone]?
IC50 (MELK): 0.0036 µM; IC50 (BT-549 cells): 1.7 µM; IC50 (T47D cells): 0.7 µM; IC50 (A549 cells): 0.79 µM; IC50 (HT-1197 cells): 1.9 µM

What does the source list for `CCOc1cc(-c2ccc3ncc(C(=O)C4CC4)c(N4CCC(CN(C)C)CC4)c3c2)ccc1O` [Example 353, Cyclopropyl[4-{4-[(dimethylamino)methyl]piperidin-1-yl}-6-(3-ethoxy-4-hydroxyphenyl)quinolin-3-yl]methanone]?
IC50 (MELK): 0.0017 µM; IC50 (BT-549 cells): 1.5 µM; IC50 (T47D cells): 0.61 µM; IC50 (A549 cells): 0.68 µM; IC50 (HT-1197 cells): 2.5 µM

How did the IC50 (MELK) turn out when `CCN(CC)C1CCC(Nc2c(S(C)(=O)=O)cnc3ccc(-c4cc(Cl)c(O)c(OC)c4)cc23)CC1` (stereo not shown) [Example 240, 2-Chloro-4-{4-[4-(diethylamino)cyclohexylamino]-3-(methylsulfonyl)quinolin-6-yl}-6-methoxyphenol dihydrochloride] was run?
The IC50 was 0.0053 µM.

And the IC50 (BT-549 cells)?
Its IC50 is 1.5 µM.

What about the IC50 (T47D cells) of the same molecule?
The IC50 was 0.97 µM.

What about the IC50 (A549 cells) of the same molecule?
The IC50 was 0.78 µM.

And the IC50 (HT-1197 cells)?
The IC50 was 3.8 µM.

What does the source list for `CCN(CC)C1CCC(Nc2c(C(=O)C3CC3)cnc3ccc(-c4ccc(O)c(Cl)c4)cc23)CC1` (stereo not shown) [Example 192, {6-(3-Chloro-4-hydroxyphenyl)-4-[4-(diethylamino)cyclohexylamino]quinolin-3-yl}(cyclopropyl)methanone]?
IC50 (MELK): 0.011 µM; IC50 (BT-549 cells): 1.3 µM; IC50 (T47D cells): 0.57 µM; IC50 (A549 cells): 0.42 µM; IC50 (HT-1197 cells): 2.2 µM

What does the source list for `N[C@H]1CC[C@H](Nc2c(C(=O)C3CC3)cnc3ccc(-c4ccc(O)cc4)cc23)CC1` [Example 55, {4-[trans-4-Aminocyclohexylamino]-6-(4-hydroxyphenyl)quinolin-3-yl}(cyclopropyl)methanone]?
IC50 (MELK): 0.021 µM; IC50 (BT-549 cells): 0.43 µM; IC50 (T47D cells): 0.2 µM; IC50 (A549 cells): 0.48 µM; IC50 (HT-1197 cells): 2 µM

Which IC50 (MELK) does the source give for `N[C@H]1CC[C@H](Nc2c(C(=O)C3CC3)cnc3ccc(-c4ccncc4)cc23)CC1` [Example 212, {4-[trans-4-Aminocyclohexylamino]-6-(pyridin-4-yl)quinolin-3-yl}(cyclopropyl)methanone] here?
Its IC50 is 0.054 µM.

And the IC50 (BT-549 cells)?
The IC50 was 2.5 µM.

What about the IC50 (T47D cells) of the same molecule?
The IC50 was 2.7 µM.

What about the IC50 (A549 cells) of the same molecule?
Its IC50 is 0.99 µM.

What about the IC50 (HT-1197 cells) of the same molecule?
Its IC50 is 7.2 µM.

`N[C@H]1CC[C@H](Nc2c(C(=O)C3CC3)cnc3ccc(-c4cc(F)c(O)c(Cl)c4)cc23)CC1` [Example 179, {4-[trans-4-Aminocyclohexylamino]-6-(3-chloro-5-fluoro-4-hydroxyphenyl)quinolin-3-yl}(cyclopropyl)methanone] was tested. Which IC50 (MELK) did it give?
Its IC50 is 0.0065 µM.

What about the IC50 (BT-549 cells) of the same molecule?
Its IC50 is 0.22 µM.

What about the IC50 (T47D cells) of the same molecule?
The IC50 was 0.11 µM.

What about the IC50 (A549 cells) of the same molecule?
Its IC50 is 0.85 µM.

And the IC50 (HT-1197 cells)?
Its IC50 is 5.2 µM.

Which IC50 (MELK) does the source give for `CCN(CC)C1CCC(Nc2c(C(=O)C3CC3)cnc3ccc(-c4ccc(O)c(OC)c4)cc23)CC1` (stereo not shown) [Example 193, Cyclopropyl{4-[4-(diethylamino)cyclohexylamino]-6-(4-hydroxy-3-methoxyphenyl)quinolin-3-yl}methanone] here?
Its IC50 is 0.007 µM.

What about the IC50 (BT-549 cells) of the same molecule?
The IC50 was 2 µM.

What about the IC50 (T47D cells) of the same molecule?
Its IC50 is 0.52 µM.

And the IC50 (A549 cells)?
Its IC50 is 0.59 µM.

And the IC50 (HT-1197 cells)?
Its IC50 is 4.2 µM.
